Results reported in patent US12479799B2, “Bioconjugation reagent and methods” (Universiteit Gent, priority 2019, dated 2025).

Assay: Glutathione exchange experiment (stability towards competing sulfhydryl groups, RP-HPLC)
Type: physicochemical
Conditions: 0.1 M sodium phosphate buffer pH 7, 10 equiv of glutathione, 37° C., 96 hours
Experimental: This example provides a stability experiment of the compound of the invention towards competing sulfhydryl groups.
Compound 4aa was incubated in a 0.1 M sodium phosphate buffer at pH 7 with 10 equiv of glutathione, incubated at 37° C. and shaken for 96 hours. The stability was checked using RP-HPLC [Phenomenex Luna C18 column using a flow rate of 1 mL/min; H2O method: 3 minutes column flushing with 100% H2O, then a gradient from 0 to 100% ACN in 20 minutes, followed by 5 minutes of flushing with 100% ACN]. […] Representative HPLC chromatogram is shown (FIG. 7).

stability of conjugated compound in presence of glutathione | GSH exchange reaction | Compound
stable | – | CC1(O)C(SCCO)CC(=O)N1Cc1ccccc1 (centres unmarked) [4′aa, 1-benzyl-5-hydroxy-4-((2-hydroxyethyl)thio)-5-methylpyrrolidin-2-one]
– | no GSH exchange reaction takes place | 1-benzyl-5-hydroxy-4-((2-hydroxyethyl)thio)-5-methylpyrrolidin-2-one [Compound 4aa]
